{"source": "ChEMBL document CHEMBL1201862", "about": "“PubChem BioAssay data set” (2004)", "assay_type_in_all_cases": "functional", "key": {"[1]": {"biological_target": "Melanin-concentrating hormone receptor 1 (Homo sapiens, UniProt Q99705)", "assay": "Late-stage fluorescence-based counterscreen for antagonists of the G-protein coupled receptor 7 (GPR7): cell-based dose response assay to identify antagonists of the melanin-concentrating hormone receptor 1 (MCHR1) Set 5."}, "[2]": {"biological_target": "Ribosomal protein S6 kinase alpha-3 (Homo sapiens, UniProt P51812)", "sequence (P51812 whole entry)": "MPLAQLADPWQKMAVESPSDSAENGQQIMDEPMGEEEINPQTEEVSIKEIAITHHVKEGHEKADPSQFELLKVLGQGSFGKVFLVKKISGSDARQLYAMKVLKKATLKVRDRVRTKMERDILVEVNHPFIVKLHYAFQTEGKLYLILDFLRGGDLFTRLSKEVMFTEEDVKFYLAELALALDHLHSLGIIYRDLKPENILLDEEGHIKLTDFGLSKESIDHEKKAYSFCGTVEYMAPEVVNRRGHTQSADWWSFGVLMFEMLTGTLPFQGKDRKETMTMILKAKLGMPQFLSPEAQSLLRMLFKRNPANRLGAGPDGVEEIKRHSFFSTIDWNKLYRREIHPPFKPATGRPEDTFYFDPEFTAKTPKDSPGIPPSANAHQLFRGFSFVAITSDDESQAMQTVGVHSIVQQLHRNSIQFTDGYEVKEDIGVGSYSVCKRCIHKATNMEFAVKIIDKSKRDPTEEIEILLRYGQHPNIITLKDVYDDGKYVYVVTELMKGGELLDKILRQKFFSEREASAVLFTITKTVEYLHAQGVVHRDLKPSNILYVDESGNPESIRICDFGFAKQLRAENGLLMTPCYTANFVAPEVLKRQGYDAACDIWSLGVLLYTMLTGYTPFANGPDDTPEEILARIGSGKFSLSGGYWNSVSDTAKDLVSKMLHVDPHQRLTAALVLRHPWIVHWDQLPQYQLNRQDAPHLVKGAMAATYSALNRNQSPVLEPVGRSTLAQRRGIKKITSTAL"}, "[3]": {"biological_target": "Ribosomal protein S6 kinase beta-1 (Homo sapiens, UniProt P23443)", "sequence (P23443 whole entry)": "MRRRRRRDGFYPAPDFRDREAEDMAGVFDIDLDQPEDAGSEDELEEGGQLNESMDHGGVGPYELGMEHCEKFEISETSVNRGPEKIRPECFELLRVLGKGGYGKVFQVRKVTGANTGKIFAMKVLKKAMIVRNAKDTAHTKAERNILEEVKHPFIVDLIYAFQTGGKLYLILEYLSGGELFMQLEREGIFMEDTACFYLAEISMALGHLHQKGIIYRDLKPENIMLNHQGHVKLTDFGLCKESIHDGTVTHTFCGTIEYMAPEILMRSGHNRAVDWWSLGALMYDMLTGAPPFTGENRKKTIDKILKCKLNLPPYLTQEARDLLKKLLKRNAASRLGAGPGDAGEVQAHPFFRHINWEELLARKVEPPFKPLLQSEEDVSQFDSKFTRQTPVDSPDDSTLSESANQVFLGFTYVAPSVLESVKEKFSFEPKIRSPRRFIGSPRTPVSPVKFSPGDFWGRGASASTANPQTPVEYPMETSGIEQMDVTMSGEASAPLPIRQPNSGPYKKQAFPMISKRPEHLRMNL"}, "[4]": {"biological_target": "MAP kinase-activated protein kinase 2 (Homo sapiens, UniProt P49137)"}, "[5]": {"biological_target": "Glycogen synthase kinase-3 beta (Homo sapiens, UniProt P49841)", "sequence (P49841 whole entry)": "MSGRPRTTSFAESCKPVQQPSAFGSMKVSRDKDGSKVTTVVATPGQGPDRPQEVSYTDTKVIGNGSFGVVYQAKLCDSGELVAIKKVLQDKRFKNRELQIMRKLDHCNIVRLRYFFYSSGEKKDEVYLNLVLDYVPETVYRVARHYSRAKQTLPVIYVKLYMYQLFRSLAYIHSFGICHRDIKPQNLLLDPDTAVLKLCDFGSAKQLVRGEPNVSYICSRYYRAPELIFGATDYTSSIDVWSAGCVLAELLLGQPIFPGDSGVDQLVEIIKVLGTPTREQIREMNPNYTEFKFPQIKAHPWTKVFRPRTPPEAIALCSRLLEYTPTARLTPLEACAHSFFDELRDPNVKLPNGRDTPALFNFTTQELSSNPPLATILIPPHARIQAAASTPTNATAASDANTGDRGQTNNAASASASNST"}, "[6]": {"biological_target": "DNA dC->dU-editing enzyme APOBEC-3G (Homo sapiens, UniProt Q9HC16)", "assay": "inhibition of APOBEC3G ssDNA deamination – biochemical, fluorescence, single-stranded DNA substrate, SAR follow-up (AID 602136)", "settings": "read-out: IC50_Mean"}, "[7]": {"biological_target": "DNA dC->dU-editing enzyme APOBEC-3A (Homo sapiens, UniProt P31941)", "sequence (P31941 whole entry)": "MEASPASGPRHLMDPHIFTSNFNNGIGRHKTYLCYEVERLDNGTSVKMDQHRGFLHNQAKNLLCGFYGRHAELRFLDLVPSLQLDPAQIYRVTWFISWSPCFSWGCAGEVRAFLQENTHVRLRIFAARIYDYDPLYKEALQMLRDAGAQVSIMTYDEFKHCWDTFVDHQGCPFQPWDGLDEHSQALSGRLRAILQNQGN", "assay": "SAR analysis of small molecule inhibitors of APOBEC3A DNA Deaminase via a fluorescence-based single-stranded DNA deaminase assay.", "settings": "read-out: IC50_Mean"}, "[8]": {"biological_target": "MAP/microtubule affinity-regulating kinase 4 (Homo sapiens, UniProt Q96L34)", "assay": "Navigating the Kinome. Panel member name: MARK4"}, "[9]": {"biological_target": "Tyrosine-protein kinase receptor TYRO3 (Homo sapiens, UniProt Q06418)"}, "[10]": {"biological_target": "Serine/threonine-protein kinase D3 (Homo sapiens, UniProt O94806)"}, "[11]": {"biological_target": "Death-associated protein kinase 3 (Homo sapiens, UniProt O43293)", "sequence (O43293 whole entry)": "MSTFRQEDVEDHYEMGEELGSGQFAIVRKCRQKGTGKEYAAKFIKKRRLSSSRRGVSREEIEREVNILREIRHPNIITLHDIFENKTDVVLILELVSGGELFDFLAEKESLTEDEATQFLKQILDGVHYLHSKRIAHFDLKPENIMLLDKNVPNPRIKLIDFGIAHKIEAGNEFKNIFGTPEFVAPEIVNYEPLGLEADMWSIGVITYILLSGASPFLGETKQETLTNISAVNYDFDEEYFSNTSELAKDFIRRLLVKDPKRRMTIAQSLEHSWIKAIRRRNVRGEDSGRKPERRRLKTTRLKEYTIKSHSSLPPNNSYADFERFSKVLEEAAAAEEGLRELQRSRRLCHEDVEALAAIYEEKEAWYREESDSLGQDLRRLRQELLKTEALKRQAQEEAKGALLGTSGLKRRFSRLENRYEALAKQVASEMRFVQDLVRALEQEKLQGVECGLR"}, "[12]": {"biological_target": "Serine/threonine-protein kinase TAO1 (Homo sapiens, UniProt Q7L7X3)"}, "[13]": {"biological_target": "Proto-oncogene tyrosine-protein kinase ROS (Homo sapiens, UniProt P08922)"}, "[14]": {"biological_target": "MAP/microtubule affinity-regulating kinase 3 (Homo sapiens, UniProt P27448)"}, "[15]": {"biological_target": "Glycogen synthase kinase-3 alpha (Homo sapiens, UniProt P49840)"}, "[16]": {"biological_target": "Mitogen-activated protein kinase kinase kinase kinase 2 (Homo sapiens, UniProt Q12851)"}, "[17]": {"biological_target": "Serine/threonine-protein kinase SIK2 (Homo sapiens, UniProt Q9H0K1)", "assay": "Navigating the Kinome. Panel member name: SIK2"}, "[18]": {"biological_target": "Dual specificity tyrosine-phosphorylation-regulated kinase 1B (Homo sapiens, UniProt Q9Y463)", "sequence (Q9Y463 whole entry)": "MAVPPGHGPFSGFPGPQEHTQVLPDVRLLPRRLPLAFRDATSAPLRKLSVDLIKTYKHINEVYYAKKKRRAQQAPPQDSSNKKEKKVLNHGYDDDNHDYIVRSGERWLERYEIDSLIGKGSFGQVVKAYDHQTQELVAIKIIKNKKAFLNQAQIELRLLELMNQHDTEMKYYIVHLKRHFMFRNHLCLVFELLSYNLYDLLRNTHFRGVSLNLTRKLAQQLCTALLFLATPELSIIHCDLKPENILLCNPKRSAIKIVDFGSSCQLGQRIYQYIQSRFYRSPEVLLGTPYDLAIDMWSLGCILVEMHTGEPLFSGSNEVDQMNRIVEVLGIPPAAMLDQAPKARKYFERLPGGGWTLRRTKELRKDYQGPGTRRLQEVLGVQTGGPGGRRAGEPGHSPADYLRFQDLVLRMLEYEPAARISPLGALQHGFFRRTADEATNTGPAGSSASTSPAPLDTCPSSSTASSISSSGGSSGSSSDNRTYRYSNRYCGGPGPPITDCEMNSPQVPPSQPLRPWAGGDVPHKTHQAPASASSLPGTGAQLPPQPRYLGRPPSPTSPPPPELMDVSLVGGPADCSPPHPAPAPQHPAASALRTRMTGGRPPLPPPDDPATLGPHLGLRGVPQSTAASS", "assay": "Navigating the Kinome. Panel member name: DYRK1B"}, "[19]": {"biological_target": "Maternal embryonic leucine zipper kinase (Homo sapiens, UniProt Q14680)", "sequence (Q14680 whole entry)": "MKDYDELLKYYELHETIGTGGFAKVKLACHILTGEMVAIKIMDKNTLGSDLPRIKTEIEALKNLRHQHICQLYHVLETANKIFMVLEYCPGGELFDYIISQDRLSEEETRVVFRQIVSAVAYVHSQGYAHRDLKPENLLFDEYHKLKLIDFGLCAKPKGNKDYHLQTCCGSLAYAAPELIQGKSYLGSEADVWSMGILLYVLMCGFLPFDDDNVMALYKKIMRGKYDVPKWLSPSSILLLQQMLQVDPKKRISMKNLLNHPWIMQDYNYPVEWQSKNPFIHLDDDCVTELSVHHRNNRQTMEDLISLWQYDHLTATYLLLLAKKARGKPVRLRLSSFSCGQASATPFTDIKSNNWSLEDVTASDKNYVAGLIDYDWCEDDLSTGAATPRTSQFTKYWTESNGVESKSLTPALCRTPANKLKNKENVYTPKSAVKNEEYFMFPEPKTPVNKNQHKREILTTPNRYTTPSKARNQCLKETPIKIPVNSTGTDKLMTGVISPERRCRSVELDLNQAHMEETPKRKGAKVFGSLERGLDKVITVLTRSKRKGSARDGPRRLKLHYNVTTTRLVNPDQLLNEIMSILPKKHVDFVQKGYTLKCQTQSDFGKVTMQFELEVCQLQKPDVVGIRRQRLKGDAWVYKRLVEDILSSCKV"}, "[20]": {"biological_target": "BDNF/NT-3 growth factors receptor (Homo sapiens, UniProt Q16620)"}, "[21]": {"biological_target": "Macrophage-stimulating protein receptor (Homo sapiens, UniProt Q04912)", "sequence (Q04912 25-304 limits assumed)": "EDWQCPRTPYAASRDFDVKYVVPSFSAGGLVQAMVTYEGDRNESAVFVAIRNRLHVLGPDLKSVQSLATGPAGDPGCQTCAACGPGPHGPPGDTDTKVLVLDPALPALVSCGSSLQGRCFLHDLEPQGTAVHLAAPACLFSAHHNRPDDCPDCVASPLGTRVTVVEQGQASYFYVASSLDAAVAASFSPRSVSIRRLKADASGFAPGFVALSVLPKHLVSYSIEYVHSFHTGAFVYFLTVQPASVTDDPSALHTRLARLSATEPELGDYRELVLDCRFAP", "sequence (Q04912 310-1400 limits assumed)": "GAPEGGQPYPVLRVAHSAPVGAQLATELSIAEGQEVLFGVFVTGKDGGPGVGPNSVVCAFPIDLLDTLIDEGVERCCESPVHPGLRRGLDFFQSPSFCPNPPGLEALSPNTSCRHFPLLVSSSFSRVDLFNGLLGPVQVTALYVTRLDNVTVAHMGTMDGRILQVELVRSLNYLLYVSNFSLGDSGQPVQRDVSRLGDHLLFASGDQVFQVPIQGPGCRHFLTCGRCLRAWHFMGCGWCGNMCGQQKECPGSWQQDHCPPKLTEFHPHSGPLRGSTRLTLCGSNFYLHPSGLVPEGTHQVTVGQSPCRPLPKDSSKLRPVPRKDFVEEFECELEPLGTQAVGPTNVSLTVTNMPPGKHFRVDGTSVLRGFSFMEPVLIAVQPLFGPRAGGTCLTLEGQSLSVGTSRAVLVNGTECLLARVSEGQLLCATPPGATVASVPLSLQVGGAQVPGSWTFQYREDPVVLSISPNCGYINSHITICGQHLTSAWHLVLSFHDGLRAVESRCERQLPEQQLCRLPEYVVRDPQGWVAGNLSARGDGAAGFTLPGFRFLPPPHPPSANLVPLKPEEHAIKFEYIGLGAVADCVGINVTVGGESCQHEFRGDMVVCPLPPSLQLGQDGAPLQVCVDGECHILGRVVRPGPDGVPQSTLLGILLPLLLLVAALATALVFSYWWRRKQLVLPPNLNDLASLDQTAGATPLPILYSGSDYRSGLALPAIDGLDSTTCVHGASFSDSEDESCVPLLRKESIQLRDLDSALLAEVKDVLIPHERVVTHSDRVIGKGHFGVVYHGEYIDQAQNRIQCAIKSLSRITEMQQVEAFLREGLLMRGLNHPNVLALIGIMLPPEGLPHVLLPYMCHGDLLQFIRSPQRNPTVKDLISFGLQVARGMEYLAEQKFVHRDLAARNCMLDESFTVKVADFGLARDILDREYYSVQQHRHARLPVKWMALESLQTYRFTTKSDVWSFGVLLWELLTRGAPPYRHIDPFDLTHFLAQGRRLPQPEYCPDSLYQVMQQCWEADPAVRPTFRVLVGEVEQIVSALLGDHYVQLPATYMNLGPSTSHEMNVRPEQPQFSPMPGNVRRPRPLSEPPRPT", "assay": "Navigating the Kinome. Panel member name: MST1R"}, "[22]": {"biological_target": "Leukocyte tyrosine kinase receptor (Homo sapiens, UniProt P29376)", "assay": "Navigating the Kinome. Panel member name: LTK"}}, "note": "Calls of active or inactive are those of the source.", "data": [{"smiles": "COc1ccc(Oc2c(Cl)cnn(Cc3cccc4ccccc34)c2=O)c(F)c1", "values": [{"measurement": "IC50", "setting": "[1]", "value": "6240 nM (active)"}]}, {"smiles": "CCOC(=O)c1c(NC(=O)C2C(C)(C)C2(C)C)sc2cnccc12", "values": [{"measurement": "Ki", "setting": "[2]", "value": "6310 nM (active)"}, {"measurement": "Ki", "setting": "[3]", "value": "2510 nM (active)"}, {"measurement": "Ki", "setting": "[4]", "value": "6310 nM (active)"}, {"measurement": "Ki", "setting": "[5]", "value": "3980 nM (active)"}]}, {"smiles": "CCCCn1c(=O)c2ccccc2n2c(SCCS(=O)(=O)c3ccccc3)nnc12", "values": [{"measurement": "IC50", "setting": "[6]", "value": "> 99000 nM (inactive)"}, {"measurement": "IC50", "setting": "[7]", "value": "> 99000 nM (inactive)"}]}, {"smiles": "Nc1nc(Nc2ccc(S(N)(=O)=O)cc2)nn1C(=O)c1c(F)cccc1F", "note": "[JNJ-7706621]", "values": [{"measurement": "Ki", "setting": "[8]", "value": "100 nM (active)"}, {"measurement": "Ki", "setting": "[9]", "value": "794 nM (active)"}, {"measurement": "Ki", "setting": "[10]", "value": "2000 nM (active)"}, {"measurement": "Ki", "setting": "[11]", "value": "2000 nM (active)"}, {"measurement": "Ki", "setting": "[12]", "value": "25.1 nM (active)"}, {"measurement": "Ki", "setting": "[13]", "value": "501 nM (active)"}, {"measurement": "Ki", "setting": "[14]", "value": "794 nM (active)"}, {"measurement": "Ki", "setting": "[15]", "value": "158 nM (active)"}, {"measurement": "Ki", "setting": "[16]", "value": "1580 nM (active)"}, {"measurement": "Ki", "setting": "[17]", "value": "251 nM (active)"}, {"measurement": "Ki", "setting": "[18]", "value": "> 2000 nM (inactive)"}, {"measurement": "Ki", "setting": "[19]", "value": "631 nM (active)"}, {"measurement": "Ki", "setting": "[20]", "value": "2000 nM (active)"}, {"measurement": "Ki", "setting": "[21]", "value": "100 nM (active)"}, {"measurement": "Ki", "setting": "[22]", "value": "> 1580 nM (inactive)"}]}]}
